# Laboratory results published in patent publication US20220168430A1, “THERAPEUTIC METHODS FOR TREATING HEPATITIS B” (priority 2019, published 2022).
# pEC50: −log10 of the molar value.
# Key:
# HBV rcDNA = experiment: microbe, parasite or virus in culture; assay type: cell-based, HBV genotype D, serotype ayw; HepG 2.2.15; details: for SYNERGY PLOT (99%) Bonferroni Adj. 55%: TDF 0 μM, Cmpd 1 by row r37-r42: 0.405, 0.135, 0.045, 0.015, 0.005, 0 μM
# Method: In vitro triple agent combination studies were conducted using the method of Prichard and Shipman 1990 (Prichard M N, Shipman C, Jr. 1990. Antiviral Res 14:181-205). The HepG 2.2.15 cell line was derived from HepG2 cells with constitutive expression of HBV (genotype D, serotype ayw) (Sells M A, Chen M L, Acs G. 1987. Proc Natl Acad Sci USA 84:1005-9). […] The plates were incubated for 7 days in a humidified incubator at 37° C. and 5% CO2. The level of rcDNA present in the culture supernatants was measured using a Quantigene 2.0 bDNA assay kit (Affymetrix, Santa Clara, Calif.) with HBV specific custom probe set (genotype D ayw) and according to the manufacturer's instructions and read using a luminescence plate reader and the relative luminescence units (RLU) data generated from each well was calculated as % inhibition of the untreated control wells and analyzed using the MacSynergy II program to determine whether the combinations were synergistic, additive or antagonistic using the interpretive guidelines established by Prichard and Shipman (Prichard M N, Shipman C, Jr. 1990. […] Concurrently, in each experiment, the effect of inhibitor combinations on cell viability was assessed in triplicates that were used to determine the ATP content as a measure of cell viability using the Cell-Titer Glo reagent (Promega, Madison, Wis.) as per the manufacturer's instructions.
# HBV DNA = HBV DNA in culture supernatants of HBV-infected PHH by qPCR, single agents and double combinations (Examples 1-4); assay type: cell-based, HBV genotype D; primary human hepatocytes; details: Hepatitis B virus
# Method: The day PHH seeding date was defined as day 0.
# The PHH were infected with 400 HBV GE/cell of HBV genotype D type HBV on day 1.
# The test articles were further diluted with the culture medium to the final test concentrations.
# All the test articles were further diluted 100 times with the culture medium. The final concentration of DMSO in the culture medium was […].
# The compounds were tested at 7 concentrations, 3-fold dilution, in triplicate.
# Four two-way combinations were performed on a 5×5 matrix, in triplicate plates. Transfection reagent was present in all wells. The culture medium containing the articles were refreshed every 1 or 2 days.
# DNA in the culture supernatants harvested on days 8 was isolated with QIAamp 96 DNA Blood Kit (Qiagen-51162). For each sample, 100 μl of each culture supernatant was used to extract DNA. The DNA was eluted with 180 μl of AE. HBV DNA in the culture supernatants was quantified by quatitative PCR using primers and probes outlined in Table 3. Percent inhibition of HBV DNA was calculated with the formula below:
# % Inh. HBV DNA=[1−value of sample/AVG. value of Medium control]×100.
# Results of double combination studies were analyzed using MacSynergy II software (Prichard and Shipman, 1992).
# HBsAg = experiment: Liver HBsAg by ELISA in AAV-HBV mouse model (Example 18); assay type: in vivo, C57BL/6 mice; HBV serotype Ayw, genotype D; details: Study Day 42; siRNA 3 mg/kg s.c. Days 0 and 28, encapsidation inhibitor 100 mg/kg and/or TDF 1 mg/kg oral daily Days 0-41; group mean ± SEM, n=6
# Method: Prior to treatment start, 1×10^11 viral genomes of an adeno-associated virus (AAV) vector carrying a 1.3-fold overlength copy of an HBV genome (serotype Ayw, genotype D) was administered to C57BL/6 mice via intravenous injection. Introduction of this viral vector results in the expression of HBV DNA and HBV surface antigen (HBsAg) amongst other HBV products. Serum HBV DNA levels in mice was measured using a quantitative polymerase chain reaction (QPCR) assay, HBsAg in serum and liver of mice was measured using an enzyme-linked immunosorbent assay (ELISA), and anti-HBsAg antibodies were measured using ELISA.
# Treatment effects on serum HBV DNA were determined by collecting a small amount of blood on Days 0 (pre-treatment) and 14, as well as from terminal blood collections at Day 42. Treatment effects on HBsAg in serum and liver were determined from terminal sample collections at Day 42.
# Any individual animal samples measured to fall below assay lower limit of quantitation (LLOQ) were reported as the LLOQ value.
# [1] = Hepatitis B virus, HepG2.2.15, read-out: ADDITIVE INHIBITION
smiles,measurement,setting,value
COCCCOc1cc2c(nc1OC)-c1cc(=O)c(C(=O)O)cn1[C@H](C(C)C)C2 [Compound 2],AVERAGE % INHIBITION,"HBV rcDNA; Cmpd 1 0 μM, Cmpd 2 0.0001 μM, TAF 0 μM",31.76%
same,AVERAGE % INHIBITION,"HBV rcDNA; Cmpd 1 0 μM, Cmpd 2 0.0002 μM, TAF 0 μM",43.68%
same,AVERAGE % INHIBITION,"HBV rcDNA; Cmpd 1 0 μM, Cmpd 2 0.0004 μM, TAF 0 μM",58.53%
same,AVERAGE % INHIBITION,"HBV rcDNA; Cmpd 1 0 μM, Cmpd 2 0.001 μM, TAF 0 μM",71.85%
same,AVERAGE % INHIBITION,"HBV rcDNA; Cmpd 1 0 μM, Cmpd 2 0.002 μM, TAF 0 μM",78.06%
same,AVERAGE % INHIBITION,"HBV rcDNA; Cmpd 1 0 μM, Cmpd 2 0.003 μM, TAF 0 μM",83.72%
same,AVERAGE % INHIBITION,"HBV rcDNA; Cmpd 1 0 μM, Cmpd 2 0.007 μM, TAF 0 μM",85.49%
same,AVERAGE % INHIBITION,"HBV rcDNA; Cmpd 1 0 μM, Cmpd 2 0.027 μM, TAF 0 μM",87.17%
same,AVERAGE % INHIBITION,"HBV rcDNA; Cmpd 1 0 μM, Cmpd 2 […], TAF 0 μM",89.05%
same,SYNERGY PLOT (99%) Bonferroni Adj. 55%,HBV rcDNA; Cmpd 2 0.00002 μM,0
same,SYNERGY PLOT (99%) Bonferroni Adj. 55%,HBV rcDNA; Cmpd 2 0.00004 μM,0
same,SYNERGY PLOT (99%) Bonferroni Adj. 55%,HBV rcDNA; Cmpd 2 0.00008 μM,0
same,SYNERGY PLOT (99%) Bonferroni Adj. 55%,HBV rcDNA; Cmpd 2 0.00016 μM,0
same,SYNERGY PLOT (99%) Bonferroni Adj. 55%,HBV rcDNA; Cmpd 2 0.0003 μM,0
same,SYNERGY PLOT (99%) Bonferroni Adj. 55%,HBV rcDNA; Cmpd 2 0.0006 μM,0
same,SYNERGY PLOT (99%) Bonferroni Adj. 55%,HBV rcDNA; Cmpd 2 0.001 μM,0
same,SYNERGY PLOT (99%) Bonferroni Adj. 55%,HBV rcDNA; Cmpd 2 0.003 μM,0
same,SYNERGY PLOT (99%) Bonferroni Adj. 55%,HBV rcDNA; Cmpd 2 0.005 μM,0
same,AVERAGE % INHIBITION,"HBV rcDNA; ETV @ 0 μM, Cmpd 2 0.0001 μM alone",39.44%
same,AVERAGE % INHIBITION,"HBV rcDNA; ETV @ 0 μM, Cmpd 2 0.0002 μM alone",47.6%
same,AVERAGE % INHIBITION,"HBV rcDNA; ETV @ 0 μM, Cmpd 2 0.0004 μM alone",67.99%
same,AVERAGE % INHIBITION,"HBV rcDNA; ETV @ 0 μM, Cmpd 2 0.001 μM alone",74.24%
same,AVERAGE % INHIBITION,"HBV rcDNA; ETV @ 0 μM, Cmpd 2 0.002 μM alone",77.97%
same,AVERAGE % INHIBITION,"HBV rcDNA; ETV @ 0 μM, Cmpd 2 0.003 μM alone",83.78%
same,AVERAGE % INHIBITION,"HBV rcDNA; ETV @ 0 μM, Cmpd 2 0.007 μM alone",86.78%
same,AVERAGE % INHIBITION,"HBV rcDNA; ETV @ 0 μM, Cmpd 2 0.027 μM alone",88.04%
same,AVERAGE % INHIBITION,"HBV rcDNA; ETV @ 0 μM, Cmpd 2 […] alone",88.65%
same,inhibition at 20 pM,HBV rcDNA; [1],7.15%
same,inhibition at 40 pM,HBV rcDNA; [1],9.56%
same,inhibition at 0.00016 µM,HBV rcDNA; [1],36.2%
same,inhibition at 0.0003 µM,HBV rcDNA; [1],40.9%
same,inhibition at 0.0006 µM,HBV rcDNA; [1],64.5%
same,inhibition at 0.001 µM,HBV rcDNA; [1],69.8%
same,inhibition at 0.003 µM,HBV rcDNA; [1],74.5%
same,inhibition at 0.005 µM,HBV rcDNA; [1],77.5%
"CC(C)OC(=O)[C@H](C)N[P@](=O)(CO[C@H](C)Cn1cnc2c(N)ncnc21)Oc1ccccc1 [TAF, tenofovir alafenamide]",pEC50,HBV DNA,10.08
"CC(C)OC(=O)OCOP(=O)(CO[C@H](C)Cn1cnc2c(N)ncnc21)OCOC(=O)OC(C)C.O=C(O)/C=C/C(=O)O [TDF, tenofovir disoproxil fumarate, reference compound]",Liver HBsAg,HBsAg,1.77 ± 0.03 log10 IU/mg liver protein
